{
  "source": "paper PMC3292552",
  "about": "“Post-Translational Regulation and Trafficking of the Granulin-Containing Protease RD21 of Arabidopsis thaliana” (PLoS ONE, 2012)",
  "key": {"[1]": {"target": "T1, RD21 (Arabidopsis thaliana, UniProt P43297, C161A)", "T1 construct": "gene RD21A; full-length preproprotein agroinfiltrated in Nicotiana benthamiana, two (pRH628) or three (pRH629) extra C-terminal Ser; crude leaf extract; processed in planta to iRD21/mRD21; mRD21 N-termini DELPE, LPE, GDELPE; also endogenous in Arabidopsis leaf extract", "T1 sequence (P43297 137-462 C161A)": "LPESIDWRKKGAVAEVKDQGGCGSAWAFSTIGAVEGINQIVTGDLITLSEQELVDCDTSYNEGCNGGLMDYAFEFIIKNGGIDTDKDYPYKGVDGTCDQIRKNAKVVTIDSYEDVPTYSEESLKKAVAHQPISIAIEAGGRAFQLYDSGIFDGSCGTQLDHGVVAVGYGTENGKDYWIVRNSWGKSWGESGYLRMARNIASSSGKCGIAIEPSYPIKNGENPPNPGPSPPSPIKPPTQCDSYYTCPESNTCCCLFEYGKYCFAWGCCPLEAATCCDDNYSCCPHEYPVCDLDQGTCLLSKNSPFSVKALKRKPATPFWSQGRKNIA", "assay": "competition of DCG-04 labelling", "assay_type": "biochemical", "settings": "20 µM E-64 preincubation, 0.2 µM DCG-04, pH 6; catalytic Cys absent; leaf extract"}, "[2]": {"target": "T2, RD21 (Arabidopsis thaliana, UniProt P43297)", "T2 construct": "gene RD21A; full-length preproprotein agroinfiltrated in Nicotiana benthamiana, two (pRH628) or three (pRH629) extra C-terminal Ser; crude leaf extract; processed in planta to iRD21/mRD21; mRD21 N-termini DELPE, LPE, GDELPE; also endogenous in Arabidopsis leaf extract", "T2 sequence (P43297 137-462)": "as the sequence (P43297 137-462 C161A) above, with A25C counted along it", "assay": "competition of DCG-04 labelling; protection of rubisco from degradation", "assay_type": "biochemical", "settings": "covalent; 20 µM E-64 preincubation, 0.2 µM DCG-04, pH 6, 1 mM DTT; leaf extract"}},
  "data": [
    {"smiles": "CC(C)C[C@H](NC(=O)[C@H]1O[C@@H]1C(=O)O)C(=O)NCCCCNC(=N)N", "note": "[E-64]", "values": [
      {"measurement": "competition of DCG-04 labelling", "setting": "[1]", "value": "a weak, E-64-competable biotinylation occurs of iRD21"},
      {"measurement": "competition of DCG-04 labelling; protection of rubisco from degradation", "setting": "[2]", "value": "the reaction with DCG-04 can be prevented by preincubation with E-64"}
    ]}
  ]
}
